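Growth conditions: 96-well plates. Treatment: test compound, 48 hours, 5 concentrations. Analysis: linear interpolation between bracketing concentrations; unreached endpoints set to highest concentration. Abbreviation: GI50, concentration required for 50% inhibition of growth.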 Active and inactive are the calls of the source. No stated cut-off is given here; in the data, active = GI50 up to about 1.1 µM and inactive = higher.
What was measured:
Assay in all cases: inhibition of tumour cell growth, NCI panel, 48 h
TK-10 = system: TK-10
COLO 205 = system: COLO 205
OVCAR-4 = system: OVCAR-4
A549 = system: A549
SK-OV-3 = system: SK-OV-3
KM12 = system: KM12
UO-31 = system: UO-31
U-251 = system: U-251
HCT-15 = system: HCT-15
RXF 393 = system: RXF 393
UACC-257 = system: UACC-257
EKVX = system: EKVX
SK-MEL-5 = system: SK-MEL-5
SR = system: SR
Malme-3M = system: Malme-3M
HOP-92 = system: HOP-92
MCF7 = system: MCF7
HCT-116 = system: HCT-116
OVCAR-5 = system: OVCAR-5
HT-29 = system: HT-29

Compound	GI50 (TK-10)	GI50 (COLO 205)	GI50 (OVCAR-4)	GI50 (A549)	GI50 (SK-OV-3)	GI50 (KM12)	GI50 (UO-31)	GI50 (U-251)	GI50 (HCT-15)	GI50 (RXF 393)	GI50 (UACC-257)	GI50 (EKVX)	GI50 (SK-MEL-5)	GI50 (SR)	GI50 (Malme-3M)	GI50 (HOP-92)	GI50 (MCF7)	GI50 (HCT-116)	GI50 (OVCAR-5)	GI50 (HT-29)
COC(=O)CC1(CNC(=O)OCc2ccccc2)OCCO1	> 100 µM (inactive)	> 100 µM (inactive)	> 100 µM (inactive)	> 100 µM (inactive)	> 100 µM (inactive)	> 100 µM (inactive)	> 100 µM (inactive)	> 100 µM (inactive)	> 100 µM	> 100 µM (inactive)	> 100 µM (inactive)	> 100 µM (inactive)	> 100 µM (inactive)	> 100 µM (inactive)	> 100 µM (inactive)	> 100 µM (inactive)	> 100 µM (inactive)	> 100 µM (inactive)	> 100 µM (inactive)	–
COC(=O)C1=C(C(=O)OC)C(N(C)C)C(C(=O)OC)=C(C(=O)OC)S1	> 100 µM (inactive)	> 100 µM (inactive)	> 100 µM (inactive)	> 100 µM (inactive)	> 100 µM (inactive)	> 100 µM (inactive)	> 100 µM (inactive)	> 100 µM (inactive)	> 100 µM	> 100 µM (inactive)	> 100 µM (inactive)	–	–	> 100 µM (inactive)	–	–	> 100 µM (inactive)	> 100 µM (inactive)	> 100 µM (inactive)	–
CCN(CC)c1ccc2c(c1)Oc1ccc(N(C(C)=O)c3ccccc3)cc1C21OC(=O)c2ccccc21 (stereo unspecified)	> 100 µM (inactive)	> 64.1 µM (inactive)	> 82.8 µM (inactive)	37.8 µM (inactive)	> 100 µM (inactive)	23 µM (inactive)	23.7 µM (inactive)	> 77.3 µM (inactive)	92.7 µM	> 26.1 µM (inactive)	> 100 µM (inactive)	84.7 µM (inactive)	24.2 µM (inactive)	23.3 µM (inactive)	53.3 µM (inactive)	> 67.3 µM (inactive)	40.3 µM (inactive)	36.1 µM (inactive)	> 100 µM (inactive)	32.3 µM (inactive)
COC(=O)c1c(-c2ccccc2)c2sc3ccccc3n2c1N	54.3 µM (inactive)	28.2 µM (inactive)	56.5 µM (inactive)	29.6 µM (inactive)	> 100 µM (inactive)	26.1 µM (inactive)	85.9 µM (inactive)	59.4 µM (inactive)	85.7 µM	19.4 µM (inactive)	> 100 µM (inactive)	58.3 µM (inactive)	59 µM (inactive)	76.2 µM (inactive)	24.9 µM (inactive)	29.1 µM (inactive)	34.8 µM (inactive)	28.6 µM (inactive)	> 100 µM (inactive)	49.7 µM (inactive)
Cc1ccc(-c2c(C#N)c(-c3ccc([N+](=O)[O-])cc3)c(C#N)c(=O)n2NS(=O)(=O)c2ccccc2)cc1	41.3 µM (inactive)	53.1 µM (inactive)	28.1 µM (inactive)	36.6 µM (inactive)	22.4 µM (inactive)	31.6 µM (inactive)	–	40.3 µM (inactive)	36 µM	29.4 µM (inactive)	88.3 µM (inactive)	40.5 µM (inactive)	12.1 µM (inactive)	–	29.9 µM (inactive)	13.3 µM (inactive)	19.2 µM (inactive)	31.7 µM (inactive)	64.4 µM (inactive)	41.8 µM (inactive)
CN(C)CCCNc1ccc2nnn3c4ccc(O)cc4c(=O)c1c23	4.67 µM (inactive)	2.51 µM (inactive)	4.54 µM (inactive)	0.358 µM (active)	5.6 µM (inactive)	1.68 µM (inactive)	2.06 µM (inactive)	2.73 µM (inactive)	2.85 µM	0.149 µM (active)	15.8 µM (inactive)	9.98 µM (inactive)	5.73 µM (inactive)	0.193 µM (active)	10.3 µM (inactive)	4.26 µM (inactive)	5.7 µM (inactive)	1.34 µM (inactive)	9.98 µM (inactive)	2.74 µM (inactive)
Cc1sc(N)c(S(=O)(=O)c2ccccc2)c1C	> 100 µM (inactive)	> 100 µM (inactive)	> 100 µM (inactive)	> 100 µM (inactive)	> 100 µM (inactive)	> 100 µM (inactive)	> 100 µM (inactive)	> 100 µM (inactive)	> 100 µM	> 100 µM (inactive)	> 100 µM (inactive)	> 100 µM (inactive)	> 100 µM (inactive)	> 100 µM (inactive)	> 100 µM (inactive)	> 100 µM (inactive)	> 100 µM (inactive)	> 100 µM (inactive)	> 100 µM (inactive)	> 100 µM (inactive)
COC(=O)c1ccc2c(c1)CCN2C(=O)c1cc2c(cc1Br)OCO2	2 µM (inactive)	0.406 µM (active)	1.54 µM (inactive)	1.74 µM (inactive)	3.05 µM (inactive)	0.424 µM (active)	2.01 µM (inactive)	0.822 µM (active)	1.82 µM	0.863 µM (active)	0.305 µM (active)	4.66 µM (inactive)	0.167 µM (active)	0.0817 µM (active)	0.231 µM (active)	8.69 µM (inactive)	0.251 µM (active)	0.228 µM (active)	> 50 µM (inactive)	0.373 µM (active)
COc1cc(Nc2nc3ccc(C(F)(F)F)cc3nc2C(=O)O)cc(OC)c1OC	22.8 µM (inactive)	19.8 µM (inactive)	15.1 µM (inactive)	33.3 µM (inactive)	29.2 µM (inactive)	23.6 µM (inactive)	19.7 µM (inactive)	19 µM (inactive)	18.2 µM	25.2 µM (inactive)	20 µM (inactive)	34.9 µM (inactive)	34.4 µM (inactive)	34.7 µM (inactive)	27.1 µM (inactive)	–	26.2 µM (inactive)	18.5 µM (inactive)	36.1 µM (inactive)	27 µM (inactive)
COc1cc(N/N=C/C#N)cc(OC)c1OC	> 10 µM (inactive)	4.86 µM (inactive)	> 10 µM (inactive)	> 10 µM (inactive)	> 10 µM (inactive)	> 10 µM (inactive)	> 10 µM (inactive)	> 10 µM (inactive)	> 10 µM	> 10 µM (inactive)	–	> 10 µM (inactive)	> 10 µM (inactive)	2.96 µM (inactive)	7.55 µM (inactive)	–	5.87 µM (inactive)	> 10 µM (inactive)	> 10 µM (inactive)	> 10 µM (inactive)
COc1ccc2c(c1)/C(=C/CCN(C)C)c1ccccc1S2	> 100 µM (inactive)	18.8 µM (inactive)	–	> 100 µM (inactive)	> 100 µM (inactive)	> 100 µM (inactive)	27 µM (inactive)	> 100 µM (inactive)	> 100 µM	35.6 µM (inactive)	> 100 µM (inactive)	–	16.2 µM (inactive)	69 µM (inactive)	–	> 100 µM (inactive)	> 10 µM (inactive)	55.8 µM (inactive)	–	76.6 µM (inactive)
O=C(O)c1nc2ccc(C(F)(F)F)cc2[nH]c1=O	> 100 µM (inactive)	> 100 µM (inactive)	> 100 µM (inactive)	> 100 µM (inactive)	> 100 µM (inactive)	> 100 µM (inactive)	> 100 µM (inactive)	> 100 µM (inactive)	> 100 µM	> 100 µM (inactive)	> 100 µM (inactive)	> 100 µM (inactive)	> 100 µM (inactive)	> 100 µM (inactive)	> 100 µM (inactive)	> 100 µM (inactive)	> 100 µM (inactive)	> 100 µM (inactive)	> 100 µM (inactive)	> 100 µM (inactive)
CCCC(=O)Nc1cc(/C=C/C(=O)N2CC(CCl)c3c2cc(OCc2ccccc2)c2[nH]cc(C)c32)n(C)c1 (stereo unspecified)	0.533 µM (active)	0.188 µM (active)	0.069 µM (active)	0.0219 µM (active)	0.199 µM (active)	0.102 µM (active)	0.0493 µM (active)	0.0513 µM (active)	0.106 µM	0.0383 µM (active)	0.105 µM (active)	0.136 µM (active)	0.02 µM (active)	0.00444 µM (active)	0.0916 µM (active)	0.0698 µM (active)	0.0025 µM (active)	0.0272 µM (active)	0.151 µM (active)	0.0687 µM (active)
N#Cc1cc2c(cc1C#N)/C(=N\c1cccc(N)n1)N/C2=N\c1cccc(N)n1	19.3 µM (inactive)	15 µM (inactive)	–	40.8 µM (inactive)	13.7 µM (inactive)	36.8 µM (inactive)	15.7 µM (inactive)	32.5 µM (inactive)	16.3 µM	–	28.1 µM (inactive)	> 100 µM (inactive)	7.16 µM (inactive)	4.85 µM (inactive)	14.3 µM (inactive)	–	18.6 µM (inactive)	11.1 µM (inactive)	> 100 µM (inactive)	23.1 µM (inactive)
CCOC(=O)/C(=N/Nc1ccc(Cl)cc1)N1C(=S)N(C)N=C(C)C=C1S	30.5 µM (inactive)	> 100 µM (inactive)	> 100 µM (inactive)	61.8 µM (inactive)	40.3 µM (inactive)	> 100 µM (inactive)	> 100 µM (inactive)	15.9 µM (inactive)	> 100 µM	11.7 µM (inactive)	> 100 µM (inactive)	24.3 µM (inactive)	> 100 µM (inactive)	> 100 µM (inactive)	–	50.7 µM (inactive)	> 100 µM (inactive)	> 100 µM (inactive)	> 100 µM (inactive)	> 100 µM (inactive)

Reference: ChEMBL document CHEMBL1201862, “PubChem BioAssay data set” (2004)
